Assays:
GAS5 transcript = test: RNA-EMSA (REMSA) of compound binding to biotin-labeled GAS5 transcript; details: 0.1 nM biotin-labeled GAS5, 10 nM compound, yeast tRNA, 20 min at room temperature
Description: RNA-EMSA was performed as previously described (see e.g. Apostolatos, H., Apostolatos, A., Vickers, T., Watson, J. E., Song, S., Vale, F., Cooper, D. R., Sanchez-Ramos, J., and Patel, N. A. (2010) Vitamin A metabolite, all-trans-retinoic acid, mediates alternative splicing of protein kinase C deltaVIII (PKCdeltaVIII) isoform via splicing factor SC35. J Biol Chem 285, 25987-25995 and Patel, R. S., Carter, G., Cooper, D. R., Apostolatos, H., and Patel, N. A. (2014) Transformer 2beta homolog (Drosophila) (TRA2B) regulates protein kinase C deltaI (PKCdeltaI) splice variant expression during 3T3L1 preadipocyte cell cycle. J Biol Chem 289, 31662-31672
Briefly, GAS5 was cloned in TOPO vector which has the T7 promoter. […] 0.1 nM of transcribed, biotin-labeled GAS5 was incubated with 10 nM G5-1397 in presence of 10U yeast tRNA and 10 units of RNase inhibitor in a final volume of 10 μl of RNA shift buffer for 20 min at room temperature and detected using Biotin Chromogenic Detection kit (ThermoFisher). […]
As the compound(s) were designed to bind to GAS5 such that it would disrupt binding to UPF1, the compound(s) ability to bind to GAS5 was examined. […] Next, it was evaluated whether NPG567 could stabilize GAS5 in HT22 cells over-expressing UPF1 (from Addgene). […] GAS5 levels were measured using SYBR Green qPCR. […]

DM adipocytes = test: Cell viability / toxicity in DM adipocytes; assay type: cell-based, human; details: 20 nM, 24 hours
GAS5 [1] = test: Binding of side-chain derivatives to GAS5 (preliminary data)
GAS5 [2] = test: Uptake and GAS5 levels in primary neuronal cells (NC) by qPCR; assay type: cell-based, mouse; details: 10 nM
GAS5 [3] = test: GAS5 stabilization in HT22 cells over-expressing UPF1, SYBR Green qPCR; assay type: cell-based, mouse; details: pre-treated 10 nM for 1 hour, then UPF1 transfection for 24 hours
Description: As the compound(s) were designed to bind to GAS5 such that it would disrupt binding to UPF1, the compound(s) ability to bind to GAS5 was examined. RNA-EMSA (REMSA) was performed as previously described. Briefly, GAS5 was cloned in TOPO vector which has the T7 promoter. In vitro transcription assay was performed with biotin-label using RiboScribe kit using T7 RNA polymerase at 37° C. for 2 h in the presence of nucleotides, RNase inhibitor, and 5× transcription buffer. 0.1 nM of transcribed, biotin-labeled GAS5 was incubated with 10 nM NPG567 in presence of 10U yeast tRNA and 10 units of RNase inhibitor in a final volume of 10 μl of RNA shift buffer for 20 min at room temperature, detected using Biotin Chromogenic Detection kit (ThermoFisher). […] Next, it was evaluated whether NPG567 could stabilize GAS5 in HT22 cells over-expressing UPF1 (from Addgene). UPF1 was transiently transfected for 24 h (UPF oe) or pre-treated with NPG567 (10 nM) for 1 hour followed by transfection of UPF1 for 24 hours. GAS5 levels were measured using SYBR Green qPCR. […]
Methods in brief: Cell culture: Immortalized clonal mouse hippocampal cell line (HT22) (obtained from Salk Institute) and cultured in DMEM+10% FBS. […] The cells are checked for viability and counted and plated into T-25 flasks in neurobasal media with B27 supplement. […]

NEAT1, MALAT1 = test: Levels of other lncRNAs in neurons by qPCR (specificity); assay type: cell-based, mouse
HT22 cells = test: Toxicity of side-chain derivatives to HT22 cells (preliminary data)
neuronal cells = test: WST-1 cellular toxicity assay (Roche); assay type: cell-based

Row | Compound | binding to GAS5 transcript in RNA-EMSA (GAS5 transcript) | cell toxicity in DM adipocytes (DM adipocytes) | binding to GAS5 (GAS5 [1]) | uptake by NC (GAS5 [2]; primary neuronal cells) | GAS5 levels in NC (GAS5 [2]; qPCR, control set as reference) | GAS5 levels with UPF1 over-expression (GAS5 [3]) | levels of other lncRNAs NEAT1, MALAT1 present in neurons (NEAT1, MALAT1; 10 nM, NC) | specificity (NEAT1, MALAT1; in neurons) | toxicity to HT22 cells (HT22 cells) | cellular toxicity (neuronal cells; WST-1 assay (Roche)) | toxicity to cells (neuronal cells; in neurons)
1 | CC(C)C[C@H]1CN(C(=O)CC2CC2)CC(=O)N[C@@H](CCCCN)CN(C(=O)CCc2ccccc2)CC(=O)N[C@@H](Cc2ccccc2)CN(CC(N)=O)C(=O)CCSCc2ccc(cc2)C(=O)N[C@@H](Cc2ccccc2)CN(C(=O)CC2CC2)CC(=O)N1 [Formula G5-1397] | bound to GAS5 transcript | without causing cell toxicity |  |  |  |  |  |  |  |  | 
2 | NCCCC[C@H]1CN(C(=O)CCc2ccccc2)CC(=O)N[C@@H](CCC(=O)O)CN(CC(N)=O)C(=O)CCSCc2ccc(cc2)C(=O)N[C@@H](CCC(=O)O)CN(C(=O)CCC(=O)O)CC(=O)N[C@@H](CCCCN)CN(C(=O)CCCN)CC(=O)N1 [NPG567] | can bind to GAS5 transcript |  | bound efficiently to GAS5 | efficiently taken up by NC | increase GAS5 | increases GAS5 levels | did not affect | shows specificity | not toxic to HT22 cells | does not cause cellular toxicity | not toxic to cells

Reference: patent US11214835B1, “Methods and compositions for diagnosis and management of neurodegerative diseases” (UNIVERSITY OF SOUTH FLORIDA, priority 2017, dated 2022)
